# Measurements: patent publication US20260069656A1, “Nutritive Polypeptides and Formulations Thereof, and Methods of Production and Use Thereof” (Axcella Health Inc., priority 2013, published 2026)
# Assays:
# [1] = Intact half-life during simulated gastric fluid (SGF) digestion; settings: SGF pH 1.5, pepsin:polypeptide 1:20 w/w, 37° C.; produced in E. coli unless otherwise noted
# [2] = Thermostability, ProteoStat Thermal Shift Stability Kit, temperature of aggregation; format: physicochemical; settings: pH 7.1; heated from 25° C. to 95° C.
# Description: Thermostability. The thermostability of proteins in a buffer cocktail of Citric Acid and Dibasic Sodium Phosphate over a pH range of 2.8 to 7.1 (preparation described above in Table E31B) was determined using the ProteoStat® Thermal Shift Stability Kit (Enzo Life Sciences) according to the manufacturer's standard protocol. Briefly, protein solutions (˜10 mg/ml) containing 1× ProteoStat TS Detection Reagent were heated from 25° C. to 95° C. at a rate of 0.5° C. per 30 sec using a real-time PCR (rtPCR) thermocycler (BioRad) equipped with a plate reader (SynergyMx, Biotek) while monitoring the fluorescence with a Texas Red filter.
# burn injury = settings: 0.35 g/kg, cited from earlier work
# Zucker fatty rats = assay: OGTT in Zucker fatty rats, SEQID-00105 vs alogliptin vs combination (glucose 2 g/kg); format: in vivo, rat
# Description: In another experiment, an OGTT was performed in 24, fasted, male Zucker fatty rats with indwelling jugular vein catheters (JVC) to assess the acute effects of nutritive protein dosing on glycemic control as well as insulin and GLP-1 levels. The capacity of SEQID-00105 to improve glucose control was tested by comparing the blood glucose excursion of SEQID-00105 to alogliptin to SEQID-00105+alogliptin to vehicle in the context of an oral glucose tolerance test. All rodents were approximately 10-11 weeks old, weighed average of approximately 430 g and acclimated for 4-5 days prior to testing. Prior to treatment, all rats were fasted overnight for fourteen hours. […] N=6 rats per treatment group. The error bars shown are the standard errors of the mean. Each group was compared post hoc on GraphPad Prism 6, two-way ANOVA, Dunnett's multiple comparisons test first comparing within each group to the fasting glucose concentration, followed by a comparison of each time point to vehicle. […] The integrated area under curve (AUC) was calculated on Microsoft Excel using the Linear-Log Trapezoidal Method and two-way ANOVA and Dunnett's multiple comparisons tests was conducted on GraphPad Prism 6.03.
# [3] = system: mTORC1 (phosphorylation of ribosomal protein S6, rps6); assay: AlphaScreen SureFire Ribosomal Protein S6 assay in primary rat skeletal muscle cells; format: cell-based
# Description: Primary Rat Skeletal Muscle Cell (RSKMC) culture medium was purchased from Cell Applications (Catalog number: R150-500, San Diego, CA). Starvation medium DMEM/F12 was bought from Sigma (Catalog number: D9785, St. Louis, MO). […] Fetal bovine serum (FBS) and other growth factors were obtained from Cell Applications (Catalog number: R151-GS, San Diego, CA). Tissue culture flasks and clear bottom 96-well tissue culture plates were purchased from Corning Incorporated (Catalog number: 430641 and 353072, respectively, Corning, NY). Trypsin/EDTA was obtained from Life Technology (Catalog number: 25200, Grand Island, NY). DPBS and HBSS were also purchased from Life Technologies (Catalog number: 14190, 14175, respectively). AlphaScreen® SureFire® Ribosomal Protein S6 Assay Kits was obtained from Perkin Elmer (Catalog number: TGRS6P2S10K).
# Primary Rat Skeletal Muscle Cell (RSKMC) culture. RSKMC were isolated using protocol described herein and cryopreserved in liquid nitrogen. The cells were also maintained in RSKMC medium (Cell Applications) in T75 tissue flask in a 37° C., 5% CO2 tissue culture incubator (Model 3110, Thermo Fisher Scientific). The cells were split every three day when they reached ˜90% confluency. RSKMC cells were cultured in RSKMC medium in T75 tissue flask to 100% confluency. The culture medium was aspirated from the culture flask and rinsed once with 10 ml of DPBS, and then 1.5 ml of 0.25% trypsin/EDTA was added to the cells. After the cells were detached from the flask, 10 ml of culture medium were added. The medium was pipetted up and down with a 10 ml pipet to detach the cells from the flask. The cells were then seeded into clear bottom 96-well tissue culture plates at a density of 50,000 cells per well. Following overnight culture in a 37° C., 5% CO2 incubator, the cells were starved over a period of 4 hours with starvation DME/F12 medium without FBS and leucine in a 37° C., 5% CO2 tissue culture incubator, then starved for another hour incubation with Hank's Buffered Salt Solution (HBSS). […]
# healthy subjects = settings: oral supplementation vs. control; cited from earlier work
# 5-HT production = settings: oral intake of free Tryptophan; cited from earlier work
compound,measurement,setting,value
SEQID-00237: nutritive polypeptide (EEDKVNTLTKAKTKLEQQVDDLEGSLEQEKKLRMDLERAKRKLEGDLKLA; listed as Bos taurus),SGF Half-life (t½),[1],36 s
same,Tagg (pH 7.1),[2],45
NC(=O)CC[C@H](N)C(=O)O [Glutamine],decrease in Lactulose/mannitol ratio,"burn injury; after 3 days, vs 5.5× decrease",8.8 ×
same,reduction in hospital stay,burn injury,6 days
Cn1c(=O)cc(N2CCC[C@@H](N)C2)n(Cc2ccccc2C#N)c1=O [Alogliptin],glucose AUC vs vehicle,"Zucker fatty rats; 0 to 120 minutes, P=0.0051",significantly less than vehicle
same,glucose AUC vs vehicle,"Zucker fatty rats; 0 to 240 minutes, P=0.0054",significantly less than vehicle
same,blood glucose vs vehicle,Zucker fatty rats; 30 minutes following glucose challenge,significantly lower blood glucose than vehicle
same,blood glucose vs vehicle,Zucker fatty rats; 60 minutes following glucose challenge,significantly lower than vehicle
SEQID-00218: nutritive polypeptide (GTIENLEEAKKKLLKDVEVLSQRLEEKALAYDKLEKTKTRLQQELDDLLVDLDHQ; listed as Bos taurus),SGF Half-life (t½),[1],360 s
CC(C)C[C@H](N)C(=O)O [leucine],phosphorylation of rps6,"[3]; primary RSkMC, complete amino acid medium and minimal 12 amino acid mixture",stimulates phosphorylation of rps6 in primary RSkMC in a dose-dependent manner
same,phosphorylation of rps6 (relative alphascreen signal),"[3]; primary RSkMC, different Leucine concentrations",stimulates phorphorylation of rps6 in primary RSkMC in a dose-dependent manner
same,mTOR RPS6 pathway stimulation,"[3]; primary cells from Soleus, gastrocnemius and extensor digitorum longus",stimulates mTOR RPS6 pathway using isolated primary cells in a dose dependent manner
N=C(N)NCCC[C@H](N)C(=O)O [Arginine],increase in collagen deposition at wound sites,healthy subjects,2.4 ×
SEQID-00143: nutritive polypeptide (LYLEEVSKNLVEINPLKLEVKAKPWFVYTPMHGVGFDIFSTIVKKTLCLVEGK; listed as Saccharomyces cerevisiae),SGF Half-life (t½),[1],18 s
SEQID-00212: nutritive polypeptide (LEEAKKKLLKDVEVLSQRLEEKALAYDKLEKTKTRLQQELDDLLVDLDHQ; listed as Bos taurus),SGF Half-life (t½),[1],18 s
SEQID-00215: nutritive polypeptide (KKLLKDVEVLSQRLEEKALAYDKLEKTKTRLQQELDDLLVDLDHQRQIVSNLEKK; listed as Bos taurus),SGF Half-life (t½),[1],120 s
N[C@@H](Cc1c[nH]c2ccccc12)C(=O)O [Tryptophan],increase of 5-HT production,5-HT production,2 fold
